Results: patent publication US11414378B2, “Anti-fungals compounds targeting the synthesis of fungal sphingolipids” (THE RESEARCH FOUNDATION FOR THE STATE UNIVERSITY OF NEW YORK, priority 2017, dated 2022)
Converted amounts (≈) assume the structure as drawn.

Experiments:
[1] = tested on: C. neoformans; test: In vitro susceptibility testing (MIC / IC80); format: cell-based, Cryptococcus neoformans; conditions: for MIC: Example 2 table; for IC80: Cryptococcus neoformans, Tables 1-3
Protocol: Minimal inhibitory concentration (MIC) was determined following the methods of the Clinical Laboratory Standards Institutes (CLSI) with modifications. MIC studies used either RPMI or YNB medium (pH 7.0, 0.2% glucose) buffered with HEPES. […] The compound was serially diluted from 32 to 0.03 μg/ml or 19 to 0.02 μg/ml respectively in a 96 well plate with the respective medium. The yeast inoculum was prepared as described in the CLSI protocol M27-A3 guidelines. Plates were incubated at 37° C. and in the presence of 5% CO2 for 24-96 hours. Against all fungal isolates used in the initial susceptibility screen, the MICs were determined as the lowest concentration of the drug that inhibited 50% of growth compared to the control. MIC80 and MIC100, whose drug concentrations inhibited 80% and 100% growth compared to the control respectively, were also determined. For antibacterial activity, E. coli DH5a and P. aeruginosa PA14 were grown overnight in Luria Bertani (LB) broth at 30° C. The cells were washed with PBS and counted. Then, 300 μL from 2×10^8 cells/mL was spreaded onto LB agar plate using a hockey stick glass spreader. The plate was dried, and wells were punched out using a cut tip. Fifty microliters of different drug concentration was added to the well. The plate was then incubated at 30° C. for 24 hours.

[2] = tested on: C. neoformans; test: In vitro killing assay (killing curve, Kapp, 48H killing); format: cell-based, Cryptococcus neoformans; conditions: for Kapp*: Kapp = K0 − Ki (C − Ci), killing curve versus MIC; for Kill characteristics: FIG. 1A / FIG. 1B
Protocol: From an overnight culture, C. neoformans cells were washed in PBS, resuspended in YNB buffered with HEPES at pH 7.4. Cells were counted and 2×10^4 cells were incubated with either 1, 2 or 4 μg/ml of compound in a final volume of 10 ml. Tubes were then incubated at 37° C. in the presence of 5% CO2 on a rotary shaker at 200 rpm. At the illustrated time points, aliquots were taken and diluted and 100 μL was plated onto yeast peptone dextrose (YPD) plates. YPD plates were incubated in a 30° C. incubator and, after 72 hours, colony forming units (CFU) were counted and recorded.

[3] = tested on: A549; test: A549 toxicity; format: cell-based
[4] = tested on: HepG2; test: HepG2 toxicity; format: cell-based; conditions: Tables 1-3
[5] = tested on: C. neoformans; test: In vitro susceptibility (MIC80) assay; format: cell-based; conditions: Cryptococcus neoformans; lowest concentration that inhibited 80% of growth; YNB pH 7.0, HEPES, 37° C., 5% CO2
Protocol: MICs was determined following the methods of the Clinical and Laboratory Standards Institutes (CLSI) with modifications. Yeast Nitrogen Base (YNB) medium (pH 7.0, 0.2% glucose) buffered with HEPES was used for MIC studies. […] The compound was serially diluted from 16 to 0.03 μg/ml, in a 96-well plate. The inoculum was prepared as described in the CLSI protocol M27A3 guidelines. The plates were incubated at 37° C. with 5% CO2 for 24 to 72 h and the optical density was measure at 450 nm. The MICs was determined as the lowest concentration of the compound that inhibited 80% of growth compared to the control.

[6] = tested on: C. neoformans cells; test: In vitro killing activity (K100) assay; format: cell-based, Cryptococcus neoformans; conditions: Cryptococcus neoformans; minimum concentration that kills 100% of C. neoformans cells in 48 h
Protocol: C. neoformans cells from a culture grown overnight were washed in PBS and resuspended in YNB buffered with HEPES at pH 7.4. The cells were counted, and 2×10^4 cells were incubated with different concentration of compounds in a final volume of 10 ml with a final concentration of 0.5% DMSO. The tubes were then incubated at 37° C. with 5% CO2 on a rotary shaker at 200 rpm. Aliquots were taken at time points and diluted, and […] were plated onto Yeast Extract-Peptone-Dextrose (YPD) plates. YPD plates were incubated in a 30° C. incubator and after 48 h, the numbers of CFU were counted and recorded.

SMILES	IC80 [1] [µg/mL]	A549 ([3]; Tables 1-3) [µg/mL]	HepG2 [4] [µg/mL]	MIC80 [5] [µg/mL]	MFC [6] [µg/mL]	further results
O=C(N/N=C/c1cc(Br)cc(Br)c1O)c1ccc(Br)cc1 [Compound 13]						MIC [1]: 0.06 µg/mL (≈ 0.126 µM); Kapp* [2]: −0.428; A549 ([3]; Example 2 table): >128
O=C(N/N=C/c1cc(Cl)ccc1O)c1cc(Br)ccc1Br	0.25 (≈ 0.578 µM)	59	32			
O=C(N/N=C/c1c(O)ccc2ccccc12)c1cc(Br)ccc1Br	0.25 (≈ 0.558 µM)	32	16			
O=C(N/N=C/c1cc(Br)ccc1O)c1cc(Br)cc(Br)c1O [Compound 17]						MIC [1]: 0.5 µg/mL (≈ 1.01 µM); Kapp* [2]: 0.077; A549 ([3]; Example 2 table): 16
O=C(N/N=C/c1cc(Cl)ccc1O)c1cccc(F)c1F	1 (≈ 3.22 µM)	72	32			
O=C(N/N=C/c1ccc(Br)cc1O)c1cc(Br)ccc1Br	0.12 (≈ 0.252 µM)	32	16			
O=C(N/N=C/c1cc(Br)ccc1O)c1cc(Br)ccc1Br	0.25 (≈ 0.524 µM)	16	32			
O=C(N/N=C/c1cc(Cl)ccc1O)c1ccc(Br)cc1Br	0.25 (≈ 0.578 µM)	64	64			
Cc1ccc(O)c(/C=N/NC(=O)c2cc(Br)ccc2Br)c1	1 (≈ 2.43 µM)	32	32			
O=C(N/N=C/c1c(O)ccc2ccccc12)c1ccc(Br)cc1Br	0.12 (≈ 0.268 µM)	16	>32			
O=C(N/N=C/c1cc(Cl)cc(Cl)c1O)c1cc(Br)ccc1Br	0.5 (≈ 1.07 µM)	32	32			
O=C(N/N=C/c1ccc(Br)cc1O)c1ccc(Br)cc1	0.06 (≈ 0.151 µM)	16	32			Killing assay 48H (μg/mL) ([2]; 48H): Fungistatic
Cc1ccc(O)c(/C=N/NC(=O)c2cc(Br)cc(Br)c2O)c1 [drawing 66]	0.25 (≈ 0.584 µM)	4	8			
O=C(N/N=C/c1cc(Br)cc(Br)c1O)c1cc(Br)co1 [Compound H13, 4-bromo-N′-(3,5-dibromo-2-hydroxybenzylidene)furan-2-carbohydrazide]				0.06 (≈ 0.129 µM)	> 0.25	
Cc1ccc(O)c(/C=N/NC(=O)c2ccc(Br)c(Br)c2)c1 [Compound A34, 3,4-Dibromo-N′-(2-hydroxy-5-methylbenzylidene)benzohydrazide]				0.12 (≈ 0.291 µM)	> 1	
N#Cc1ccc(C(=O)N/N=C/c2cc(Br)cc(Br)c2O)cc1 [Compound A11, 4-Cyano-N′-(3,5-dibromo-2-hydroxybenzylidene)benzohydrazide]				0.06 (≈ 0.142 µM)	> 1	
O=C(N/N=C/c1cc(Br)ccc1O)c1ccc(Br)cc1Br	0.12 (≈ 0.252 µM)	>32	59			
O=C(N/N=C/c1ccc(Br)cc1O)c1ccc(Br)s1 [Compound H3, 5-Bromo-N′-(4-bromo-2-hydroxybenzylidene)thiophene-2-carbohydrazide]				0.12 (≈ 0.297 µM)	> 0.5	
O=C(N/N=C/c1cc(Cl)cc(Cl)c1O)c1cc(Br)cc(Br)c1 [Compound A38, 3,5-Dibromo-N′-(3,5-dichloro-2-hydroxybenzylidene)benzohydrazide]				0.5 (≈ 1.07 µM)	0.5 (≈ 1.07 µM)	
O=C(N/N=C/c1cc(Cl)ccc1O)c1cc(Br)cc(Br)c1 [Compound A40, 3,5-Dibromo-N′-(5-chloro-2-hydroxybenzylidene)benzohydrazide]				0.12 (≈ 0.277 µM)	1 (≈ 2.31 µM)	

SMILES	IC80 [1] [µg/mL]	A549 ([3]; Tables 1-3) [µg/mL]	HepG2 [4] [µg/mL]	MIC80 [5] [µg/mL]	MFC [6] [µg/mL]	further results
O=C(N/N=C/c1cc(Br)ccc1O)c1cccc(Br)c1 [Compound 2]						MIC [1]: 0.25 µg/mL (≈ 0.628 µM); Kill characteristics [2]: killed C. neoformans in a time dependent manner; Kapp* [2]: −0.142; A549 ([3]; Example 2 table): 64
O=C(N/N=C/c1cc(Cl)cc(Cl)c1O)c1ccc(Br)cc1Br	1 (≈ 2.14 µM)	>64	64			
Cc1ccc(O)c(/C=N/NC(=O)c2cc(Br)ccc2O)c1	0.25 (≈ 0.716 µM)	16	16			
Cc1ccc(O)c(/C=N/NC(=O)c2ccc(Br)cc2Br)c1	1 (≈ 2.43 µM)	32	16			
O=C(N/N=C/c1cccc(Cl)c1O)c1cccc(C(F)(F)F)c1 [Compound A24, 3-Trifluoromethyl-N′-(3-chloro-2-hydroxybenzylidene)benzohydrazide]				1 (≈ 2.92 µM)	4 (≈ 11.7 µM)	
O=C(N/N=C/c1ccc(Br)cc1O)c1cc(Br)co1 [Compound H12, 4-Bromo-N′-(4-bromo-2-hydroxybenzylidene) furan-2-carbohydrazide]				0.5 (≈ 1.29 µM)	> 2	
O=C(N/N=C/c1ccc(Br)cc1O)c1ccc(Br)cc1Br	0.06 (≈ 0.126 µM)	>32	>64			
O=C(N/N=C/c1cc(Br)cc(Br)c1O)c1cc(Br)c(Br)o1 [Compound H9, 4,5-Dibromo-N′-(3,5-dibromo-2-hydroxybenzylidene)furan-2-carbohydrazide]				0.12 (≈ 0.22 µM)	> 0.5	
O=C(N/N=C/c1c(O)ccc2ccccc12)c1cc(Br)c(Br)o1 [Compound H10, 4,5-Dibromo-N′-(2-hydroxynaphthalen-1-yl)methylenefuran-2-carbohydrazide]				0.12 (≈ 0.274 µM)	> 0.5	
CN(C)c1ccc(C(=O)N/N=C/c2ccc(Br)cc2O)cc1 [Compound A16]				0.25 (≈ 0.69 µM)	> 1	
O=C(N/N=C/c1cccc(Br)c1O)c1cccc(F)c1 [Compound A27, 3-Fluoro-N′-(3-bromo-2-hydroxybenzylidene)benzohydrazide]				1 (≈ 2.97 µM)	2 (≈ 5.93 µM)	
O=C(N/N=C/c1cc(Br)ccc1O)c1ccc(Br)s1 [Compound H2, 5-Bromo-N′-(5-bromo-2-hydroxybenzylidene)thiophene-2-carbohydrazide]				0.12 (≈ 0.297 µM)	> 0.5	
O=C(N/N=C/c1ccc(Br)cc1O)c1cccc(F)c1F	0.5 (≈ 1.41 µM)	16	16			
O=C(N/N=C/c1cc(C(F)(F)F)ccc1O)c1cccc(Br)c1 [Compound A14, 3-Bromo-N′-(2-hydroxy-5-trifluoromethylbenzylidene)benzohydrazide]				0.5 (≈ 1.29 µM)	> 2	
O=C(N/N=C/c1c(O)ccc2ccccc12)c1ccc(Br)c(Br)c1 [Compound A32, 3,4-Dibromo-N′-(2-hydroxy-1-naphthylidene)benzohydrazide]				0.12 (≈ 0.268 µM)	> 1	
O=C(N/N=C/c1cc(Br)cc(Br)c1O)c1cccc(OC(F)F)c1 [Compound A6, 3-Difluoromethoxy-N′-(3,5-dibromo-2-hydroxybenzylidene)benzohydrazide]				0.12 (≈ 0.259 µM)	0.5 (≈ 1.08 µM)	
Cc1ccc(O)c(/C=N/NC(=O)c2cc(Br)cc(Br)c2O)c1 [Compound A17, 3,5-Dibromo-2-hydroxy-N′-(5-methyl-2-hydroxyphenylmethylidene)benzohydrazide]				0.25 (≈ 0.584 µM)	0.25 (≈ 0.584 µM)	
Cc1ccccc1C(=O)N/N=C/c1cc(Br)ccc1O [Compound 1]						MIC [1]: 1 µg/mL (≈ 3 µM); Kill characteristics [2]: killed C. neoformans in a concentration dependent manner; Kapp* [2]: 0.024; A549 ([3]; Example 2 table): 32
O=C(N/N=C/c1ccc(Br)cc1O)c1cccc(Br)c1	0.5 (≈ 1.26 µM)	>32	9			
